In publication PMC9895061 (Signal Transduction and Targeted Therapy, 2023):
Like-named read-outs stand apart in the source and are kept apart here.

Key:
PRDX5 = target: T1, PRDX5 (Homo sapiens, UniProt P30044); experiment: Trx-TrxR-NADPH coupling peroxiredoxin activity assay, PRDX5; assay type: biochemical
T1 sequence (P30044 53-214): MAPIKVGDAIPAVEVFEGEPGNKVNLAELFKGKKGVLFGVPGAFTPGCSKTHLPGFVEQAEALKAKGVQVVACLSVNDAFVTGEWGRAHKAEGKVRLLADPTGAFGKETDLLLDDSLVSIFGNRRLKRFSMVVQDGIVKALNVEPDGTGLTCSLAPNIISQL

PRDX6 = target: T2, PRDX6 (Homo sapiens, UniProt P30041); experiment: Trx-TrxR-NADPH coupling peroxiredoxin activity assay, PRDX6; assay type: biochemical
T2 sequence (P30041 1-224): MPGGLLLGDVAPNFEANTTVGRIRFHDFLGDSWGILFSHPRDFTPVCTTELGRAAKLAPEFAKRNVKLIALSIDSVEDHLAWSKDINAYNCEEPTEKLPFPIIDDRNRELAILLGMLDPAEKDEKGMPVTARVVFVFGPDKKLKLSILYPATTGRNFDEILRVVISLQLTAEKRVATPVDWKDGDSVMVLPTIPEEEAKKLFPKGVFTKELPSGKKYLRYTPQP
Procedure: The assay was conducted in 96-well plates as previously described.[47] […] Then, the mixture solution containing 0.3 µM yeast Trx, 0.15 µM yeast TrxR and 200 µM NADPH was added to assay wells. The reaction was initiated with 100 µM hydrogen peroxide (H2O2) and detected with Thermo Multiskan FC at 340 nm. For PRDX1-6, the work concentration is 0.6 µM, 1.5 µM, 1 µM, 3 µM, 0.5 µM, 10 µM respectively. The initial reaction’s slope of assay wells containing mixture solution and H2O2 without PRDXs and compounds (S100%) were considered as 100 % inhibition of PRDXs’ peroxidase activity. The initial reaction’s slope of assay wells containing mixture solution, H2O2 and PRDXs without compounds (S0%) were considered as 0% inhibition of PRDXs’ peroxidase activity. […] The inhibition rate (%) was calculated from the following equations: 100 – (Scompound − S100%)/(S0% − S100%) × 100. […] Data were analyzed using GraphPad (version 8.0).

gNS SW620 cells = experiment: Proliferation IC50 in scrambled (gNS) SW620 cells; assay type: cell-based; settings: Homo sapiens, SW-620, 24 h, read-out: IC50 against the proliferation of scrambled (gNS) SW620 cells
Procedure: (§1) To generate PRDX1 knockdown cell lines, gRNA targeting […] was cloned into the vector pHBLV-U6-gRNA-EF1-CAS9-PURO from HanBio. The gRNA, psPAX2, and pMD2·G plasmids were mixed and co-transfected into HEK293T cells using Lipofectamine 2000 (Thermo Fisher Scientific). Medium with lentiviruses was collected and filtered through 0.45 μm filters at 48 h after transfection. Lentiviruses was used to infect the indicated cells with 8 μg/mL polybrene (Sigma-Aldrich) for 2 days. The infected cells were selected in medium containing 2 μg/mL puromycin (Sigma-Aldrich) for 3 days, and PRDX1 protein expression level were examined by western blot.
(§2) SW620 or HCT116 cells were seeded into 96-well plate overnight at 5000 cells per well or 4000 cells per well respectively. […] Cell numbers were assessed using the CCK-8 reagent at OD 450. The IC50 values were calculated by fitting the data points with the dose-response function in GraphPad.

NCM460 cells = experiment: Proliferation IC50 in NCM460; assay type: cell-based; settings: Homo sapiens, NCM460, 24 h, read-out: IC50 of proliferation, NCM460
SW620 cells [1] = experiment: ROS measurement by DCFH-DA staining and flow cytometry, SW620; assay type: cell-based, human; settings: 2 μM, 24 h
Procedure: […]. DCFH-DA was deacetylated by intracellular esterase to a non-fluorescent compound, which was later oxidized by intracellular ROS to the fluorescent DCF. DCF fluorescence was detected using flow cytometer and data was analyzed using FlowJo software (version 10.4).
g, h ROS measurement of SW620 (g) and HCT116 (h) cells with compounds treatment. […].

nude mice = experiment: Acute toxicity test (percent survival within 2 weeks); assay type: in vivo; settings: for Survival number, female (n=4) / Survival number, male (n=4) / Survival rate, female (n=4) / Survival rate, male (n=4): within 2 weeks
Procedure: For acute toxicity test, Nude mice were randomly divided into five groups (four female mice and four male mice in each group). […] The percent survival within 2 weeks was recorded in Supplementary Table 2 and survival curve.

HCT116 cells = experiment: Cell viability by trypan blue staining, HCT116; settings: for viability at 0.5 µM: Homo sapiens, HCT-116, 24 h, read-out: cells viability, HCT116
Procedure: (§3) Total cell number and viability were counted with trypan blue staining. To measure apoptosis, cells were harvested and followed by flow cytometric analysis using the Annexin V-FITC / PI apoptosis detection kit according to the manufacturer’s protocol. Cell apoptosis was analyzed by FlowJo software.
(§4) e, f Cell viability were measured by trypan-blue staining.

PRDX4 = target: T3, PRDX4 (Homo sapiens, UniProt Q13162); experiment: Trx-TrxR-NADPH coupling peroxiredoxin activity assay, PRDX4; assay type: biochemical; settings: for inhibition of the peroxidase activity of PRDX4 (in words): recombinant PRDX4
T3 sequence (Q13162 38-271): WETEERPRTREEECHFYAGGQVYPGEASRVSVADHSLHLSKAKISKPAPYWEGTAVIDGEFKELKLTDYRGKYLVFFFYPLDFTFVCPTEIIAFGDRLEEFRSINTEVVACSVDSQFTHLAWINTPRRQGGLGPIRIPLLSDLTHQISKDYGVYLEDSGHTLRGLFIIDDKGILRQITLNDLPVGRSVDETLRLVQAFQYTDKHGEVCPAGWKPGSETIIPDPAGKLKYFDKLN

gPRDX1 SW620 cells = experiment: Proliferation IC50 in PRDX1 knockdown (gPRDX1) SW620 cells; assay type: cell-based; settings: Homo sapiens, SW-620, 24 h, read-out: IC50 against the proliferation of PRDX1 knockdown (gPRDX1) SW620 cells
Procedure: as §1, §2

PRDX2 = target: T4, PRDX2 (Homo sapiens, UniProt P32119); experiment: Trx-TrxR-NADPH coupling peroxiredoxin activity assay, PRDX2; assay type: biochemical
T4 sequence (P32119 1-198): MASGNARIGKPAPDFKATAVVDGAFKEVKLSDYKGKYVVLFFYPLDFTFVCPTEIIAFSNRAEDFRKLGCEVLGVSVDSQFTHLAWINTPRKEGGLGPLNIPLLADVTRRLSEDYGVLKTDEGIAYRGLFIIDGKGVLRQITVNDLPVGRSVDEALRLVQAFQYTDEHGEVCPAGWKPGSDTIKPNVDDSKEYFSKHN

SW620 cells [2] = experiment: Cell viability by trypan blue staining, SW620; settings: for viability at 0.5 µM: Homo sapiens, SW-620, 24 h, read-out: cells viability, SW620
Procedure: as §3, §4

[3] = Body weight of xenograft-bearing nude mice; settings: 2 mg/kg, day 12, average of gNS and gPRDX1 groups

## CC1=C(O)C(=O)C=C2C1=CC=C1[C@@]2(C)CC[C@@]2(C)[C@@H]3C[C@](C)(C(=O)O)CC[C@]3(C)CC[C@]12C [Celastrol, reference compound]
PRDX5
  IC50: 2.3 ± 0.13 µM
PRDX6; recombinant PRDX6, 1.5 h incubation, mean ± SEM, triplicate, read-out: IC50 against the peroxidase activity of PRDX6
  IC50: 27.3 ± 0.39 µM
gNS SW620 cells
  IC50: 0.634 ± 0.0113 µM
NCM460 cells
  IC50: 2.66 µM
SW620 cells [1]
  ROS-positive rate, SW620: 61.07%
Nude mice; 10 mg/kg intraperitoneally
  Survival number, female (n=4): 0
  Survival number, male (n=4): 1
  Survival rate, female (n=4): 0%
  Survival rate, male (n=4): 25%
Nude mice; 20 mg/kg intraperitoneally
  Survival number, female (n=4): 0
  Survival number, male (n=4): 0
  Survival rate, female (n=4): 0%
  Survival rate, male (n=4): 0%
Nude mice; 20 mg/kg, within two weeks
  survival, all mice (male and female), in words: All the mice died
HCT116 cells
  viability at 0.5 µM: ~80%
PRDX4
  IC50: > 100 µM
  inhibition of the peroxidase activity of PRDX4 (in words): no obvious inhibitory effect
gPRDX1 SW620 cells
  IC50: 0.494 ± 0.0108 µM
PRDX2
  IC50: 3.79 ± 0.26 µM
SW620 cells [2]
  viability at 0.5 µM: ~80%
[3]
  body weight loss as compared to DMSO control: 11.2%

## COC(=O)[C@H](C)NC(=O)N[C@]1(C)CC[C@]2(C)CC[C@]3(C)C4=CC=C5C(=CC(=O)C(O)=C5C)[C@]4(C)CC[C@@]3(C)[C@@H]2C1 [19-048, Methyl (((2R,4aS,6aS,12bR,14aS,14bR)-10-hydroxy-2,4a,6a,9,12b,14a-hexamethyl-11-oxo-1,2,3,4,4a,5,6,6a,11,12b,13,14,14a,14b-tetradecahydropicen-2-yl)carbamoyl)-L-alaninate]
PRDX5; recombinant PRDX5
  inhibition of the peroxidase activity of PRDX5 (in words): no obvious inhibition
PRDX5; recombinant PRDX5, 1.5 h incubation, mean ± SEM, triplicate, read-out: IC50 against the peroxidase activity of PRDX5
  IC50: > 100 µM
PRDX6
  IC50: > 100 µM
PRDX6; recombinant PRDX6
  inhibition of the peroxidase activity of PRDX6 (in words): no obvious inhibition
gNS SW620 cells
  IC50: 0.529 ± 0.00669 µM
NCM460 cells
  IC50: 2.23 µM
SW620 cells [1]
  ROS-positive rate, SW620: 74.77%
Nude mice; 10 mg/kg intraperitoneally
  Survival number, female (n=4): 4
  Survival number, male (n=4): 4
  Survival rate, female (n=4): 100%
  Survival rate, male (n=4): 100%
Nude mice; 10 mg/kg, within two weeks
  survival, all mice (male and female): 100%
Nude mice; 20 mg/kg intraperitoneally
  Survival number, female (n=4): 0
  Survival number, male (n=4): 4
  Survival rate, female (n=4): 0%
  Survival rate, male (n=4): 100%
HCT116 cells; 1, 2 μM, 24 h, trypan blue
  cell viability at high concentrations, HCT116 (in words): significantly decreased cell viability
HCT116 cells
  viability at 0.5 µM: ~80%
PRDX4
  inhibition of the peroxidase activity of PRDX4 (in words): no obvious inhibition
PRDX4; recombinant PRDX4, 1.5 h incubation, read-out: IC50 against the peroxidase activity of PRDX4
  IC50: > 100 µM
gPRDX1 SW620 cells
  IC50: 0.431 ± 0.00914 µM
PRDX2; recombinant PRDX2
  inhibition of the peroxidase activity of PRDX2 (in words): no obvious inhibition
PRDX2; recombinant PRDX2, 1.5 h incubation, mean ± SEM, triplicate, read-out: IC50 against the peroxidase activity of PRDX2
  IC50: > 100 µM
SW620 cells [2]; 1, 2 μM, 24 h, trypan blue
  cell viability at high concentrations, SW620 (in words): significantly decreased cell viability
SW620 cells [2]
  viability at 0.5 µM: ~80%
[3]
  body weight loss as compared to DMSO control: 7.3%
